Patent US6548062B2, “Method of treating cancer with anti-neurotrophin agents” (Cephalon, Inc., priority 2000, dated 2003)

Experiments:
[1] = test system: AsPC-1 human pancreatic tumor cells; assay: AsPC-1 pancreatic cancer xenograft growth in nude mice; format: in vivo
Description: AsPC-1 human pancreatic tumor cells were injected subcutaneously into the flank of female athymic nude mice (nu/nu; 5×10^6 cells/mice). Upon xenografts reaching 100-500 mm^3, the mice were randomized and divided into four experimental groups. One group was administered a cocktail of neurotrophin antibodies (anti-NGF, BDNF, NT-3, and NT4/5). Each dose of antibody cocktail (100 μl) contained 100 μg of each neurotrophin antibody. The second experimental group was administered normal rabbit IgG (400 μg/100 μl; PeproTech 500-P00) as a control. All antibodies were administered intratumorally (50 μl) at five injection sites and peritumorally (50 μl) at five injection sites. […] Tumor length and width were measured every two to three days (Days 1, 3, 5, 8, 10, 12, and 15). […]
Tumor volumes were calculated as described above. The mean tumor volumes and standard errors were also calculated as described above. […] Probability values were calculated as described above. […]
Tumors were measured every 2-4 days using a vernier caliper. Tumor volumes were calculated as described above. The mean tumor volumes and standard errors were also calculated as described above. […] Statistical analyses were calculated as described above with p≦0.05 deemed significant. […]

[2] = test system: TSU-Pr1 human prostate tumor cells; assay: TSU-Pr1 prostate cancer xenograft growth in nude mice; format: in vivo; conditions: Experiment #1
Description: TSU-Pr1 human prostate tumor cells were injected subcutaneously into the flank of female athymic nude mice (nu/nu; 5×10^6 cells/mice). Upon xenografts reaching 100-500 mm^3, the mice were randomized and divided into four experimental groups. One group was administered a cocktail of neurotrophin antibodies (anti-NGF, BDNF, NT-3, and NT4/5). Each dose of antibody cocktail (100 μl) contained 100 μg of each neurotrophin antibody. The second experimental group was administered normal rabbit IgG (400 μg/100 μl; PeproTech 500-P00) as a control. All antibodies were administered intratumorally (50 μl) at five injection sites and peritumorally (50 μl) at five injection sites. […] Tumor length and width were measured every two to three days (Days 1, 3, 5, 8, 10, 12, and 15).
The fourth experimental group received vehicle only (100 μl) according to the dosing schedule of the third experimental group. Tumor length and width were measured every two to three days (Days 1, 3, 5, 8, 10, 12, and 15).
Tumor volumes were calculated as described above. The mean tumor volumes and standard errors were calculated as described above. […] Probability values were calculated as described above. […]
Tumor volumes were calculated as described above. The mean tumor volumes and standard errors were also calculated as described above. […] Probability values were calculated as described above.

[3] = test system: CFPAC human pancreatic carcinoma cells; conditions: previously published data; cited from earlier work
[4] = test system: AsPC-1 human pancreatic tumor cells; conditions: previously published data; cited from earlier work
[5] = molecular target: trkA (Homo sapiens, UniProt P04629); conditions: ELISA (stated for CEP-751); read-out: IC50 trkA inhibition; cited from earlier work
[6] = test system: PC-3 human prostate tumor cells; assay: PC-3 prostate cancer xenograft growth in nude mice; format: in vivo, human tumor cells in athymic nude mice; conditions: 10 mg/kg s.c. BID
Description: PC-3 human prostate tumor cells (5×10^6 cells/mice) were injected subcutaneously into the flank of eight to ten week old, female athymic nude mice (nu/nu; Charles River, Raleigh, N.C.). Mice weighed between 22-25 grams on the day of tumor implantation. Upon xenografts reaching 100-500 mm^3, the mice were randomized and divided into experimental groups. Some experimental groups were administered a cocktail of neurotrophin antibodies (4×25 μg each, or 4×100 μg each of anti-NGF, BDNF, NT-3, and NT4/5) or normal rabbit IgG (100 μg or 400 μg; PeproTech 500-P00) in sterile 1×PBS (total volume of 100 μl). All antibodies were administered intratumorally (50 μl) at five injection sites and peritumorally, subcutaneously (50 μl) at five injection sites. […] Tumor length and width were measured every two to three days. […] Tumor length and width were measured every two to three days (days 1, 3, 5, 8, 10, 12, 15, 17, 19 and 22).
Tumor volumes were calculated as (length×width (length+width)/2))×0.526 (Isaacs, Canc. […] The mean tumor volumes and standard errors were calculated (SigmaStat, Jandel Scientific, San Rafel, Calif.). […] Relative tumor volumes were calculated as (mean vt mean vo), where vt refers to tumor volume on a given day and vo is the volume of the same tumor at initiation of dosing (day 1). […] Probability values were calculated by the Mann-Whitney Rank Sum Test (SigmaStat).

Chain of trkA (P04629 33-796, species assumed): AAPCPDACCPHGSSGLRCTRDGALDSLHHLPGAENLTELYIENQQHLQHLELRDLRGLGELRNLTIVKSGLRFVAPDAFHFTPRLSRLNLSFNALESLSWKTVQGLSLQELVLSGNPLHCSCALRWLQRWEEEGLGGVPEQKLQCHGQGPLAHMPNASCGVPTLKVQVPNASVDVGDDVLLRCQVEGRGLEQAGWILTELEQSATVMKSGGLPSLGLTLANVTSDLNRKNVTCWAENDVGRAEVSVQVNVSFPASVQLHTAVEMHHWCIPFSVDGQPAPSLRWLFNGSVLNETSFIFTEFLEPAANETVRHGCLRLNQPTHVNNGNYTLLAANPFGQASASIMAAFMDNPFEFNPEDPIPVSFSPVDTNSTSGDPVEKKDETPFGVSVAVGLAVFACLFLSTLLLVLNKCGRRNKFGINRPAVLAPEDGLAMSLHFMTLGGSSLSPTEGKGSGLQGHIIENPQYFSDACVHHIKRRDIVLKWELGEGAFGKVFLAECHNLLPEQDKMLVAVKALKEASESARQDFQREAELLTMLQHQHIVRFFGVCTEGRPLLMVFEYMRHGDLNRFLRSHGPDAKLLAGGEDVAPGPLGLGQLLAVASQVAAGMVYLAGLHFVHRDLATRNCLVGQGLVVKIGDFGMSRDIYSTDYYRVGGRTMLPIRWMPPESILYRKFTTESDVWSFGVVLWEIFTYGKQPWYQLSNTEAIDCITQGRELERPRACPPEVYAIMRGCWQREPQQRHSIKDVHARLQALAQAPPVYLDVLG

| Compound | Minimum T/C (absolute tumor volumes vs vehicle control) ([1]; 10 mg/kg sc BID, Day 15) | Tolerability (deaths or morbidity) ([1]; nude mice bearing AsPC-1 xenografts) | Minimum T/C (absolute tumor volumes vs vehicle control) ([2]; 10 mg/kg sc BID, Days 12 and 15) | Tolerability (deaths or morbidity) ([2]; nude mice bearing TSU-Pr1 xenografts) | CFPAC tumor growth [3] | Growth of AsPC-1 tumors [4] | IC50 [5] [nM] | Growth of PC-3 tumors relative to vehicle control ([6]; 22 days) | Minimum T/C (absolute tumor volumes vs vehicle control) ([6]; day 19) |
| --- | --- | --- | --- | --- | --- | --- | --- | --- | --- |
| C[C@]12O[C@H](C[C@]1(O)CO)n1c3ccccc3c3c4c(c5c6ccccc6n2c5c31)CNC4=O [CEP-701] | 0.27 | well tolerated | 0.29 | well tolerated | insensitive | inhibited | – | – | – |
| CO[C@]1(CO)C[C@H]2O[C@]1(C)n1c3ccccc3c3c4c(c5c6ccccc6n2c5c31)C(=O)NC4 [CEP-751] | – | – | – | – | – | – | 3 | inhibited the growth of PC-3 tumors | 0.44 |
